# In patent US10377741B2, “Substituted heteroaryl aldehyde compounds and methods for their use in increasing tissue oxygenation” (Global Blood Therapeutics, Inc., priority 2011, dated 2019):
# Molecular target: T1, purified Hemoglobin S (HbS) (Homo sapiens, UniProt P68871+P69905, E7V)
# T1 construct: HbS was purified by a modified procedure; from tissue; host or cells: blood of homozygous sickle cell patients (CHORI); for the polymerization assay purified by the CRO VIRUSYS
# Assay: Modulation of hemoglobin oxygen affinity: oxygen equilibrium curves (HEMOX) in purified HbS
# Type: biochemical, human (homozygous sickle cell patients)
# Conditions: compound at 30 μM; 25 μM purified HbS, 45 min at 37° C.
# Experimental: Oxygen equilibrium curves (OEC) in purified Hemoglobin S (HbS) were measured by the change in p50, the partial pressure of oxygen at which the heme binding sites in the HbS sample are 50% saturated with oxygen. HbS was purified by a modified procedure (Antonini and Brunori, 1971; Heomoglobin and Myoglobin in their Reactions with Ligands; North Holland Publishing Company; Amsterdam, London) from blood obtained from homozygous sickle cell patients though the Hemoglobinopathy Center at Children's Hospital Oakland Research Institute (CHORI) with Institutional Review Board approval. Oxygen equilibrium curves were carried out with a HEMOX analyzer, (TCS Scientific, New Hope, Pa.). Five hundred μL of 250 μM purified HbS were diluted into 4.5 mL of HEMOX buffer (30 mM TES, 130 mM NaCl, 5 mM KCl, pH=7.4) resulting in a final hemoglobin concentration of 25 μM. The compounds were added at the final desired concentrations. The mixture was incubated for 45 min at 37° C. and then transferred to the Hemox sample chamber. The samples were saturated with oxygen by flushing with compressed air for 10 minutes. The samples were then flushed with pure nitrogen and the absorbance of deoxy-Hb was recorded as a function of the solution pO2. The oxygen equilibrium data was then fit to the Hill Model to obtain values for p50. The deoxygenation curves for both HbS alone (control) and HbS in the presence of compound were collected with the TCS software. The p50 for purified Hbs was typically 13.8±1.6. Delta p50 values were obtained from the p50 value for control minus the p50 value for HbS treated with compound divided by the p50 value for the control.
# The compounds of Table 1 that were where tested in the assay above were all found to have positive delta p50 values. Delta p50% is calculated from [[p50(HbS) −p50(HbS treated with compound)]/p50(HbS)]×100. Table 2 below lists the delta p50% values where + indicates a delta p50% of between 0 and 29, ++ indicates a delta p50% of between 30 and 50, and +++ indicates a delta p50% of 50 or greater. Unless noted otherwise, the compounds in Table 2 were tested at 30 μM.
row,delta p50%,Compound
1,+ (a delta p50% of between 0 and 29),"O=Cc1cnccc1OCc1cccnc1 [Compound 1, 4-(pyridin-3-ylmethoxy)nicotinaldehyde]"
2,+ (a delta p50% of between 0 and 29),"O=Cc1cccnc1OCc1cccn2ccnc12 [Compound 3, 2-(imidazo[1,2-a]pyridin-8-ylmethoxy)nicotinaldehyde]"
3,+ (a delta p50% of between 0 and 29),"O=Cc1ncccc1OCc1cccn2ccnc12 [Compound 4, 3-(imidazo[1,2-a]pyridin-8-ylmethoxy)picolinaldehyde]"
4,+ (a delta p50% of between 0 and 29),"O=Cc1ccncc1OCc1cccn2ccnc12 [Compound 6, 3-(imidazo[1,2-a]pyridin-8-ylmethoxy)isonicotinaldehyde]"
5,+ (a delta p50% of between 0 and 29),"O=Cc1ccncc1OCc1cccn2cncc12 [Compound 7, 3-(imidazo[1,5-a]pyridin-8-ylmethoxy)isonicotinaldehyde]"
6,+ (a delta p50% of between 0 and 29),"COc1cc(C=O)c(OCc2cccnc2C)cn1 [Compound 38, 2-methoxy-5-((2-methylpyridin-3-yl)methoxy)isonicotinaldehyde]"
7,+ (a delta p50% of between 0 and 29),"COc1cc(C=O)c(OCc2cnccc2C)cn1 [Compound 39, 2-methoxy-5-((4-methylpyridin-3-yl)methoxy)isonicotinaldehyde]"
8,+ (a delta p50% of between 0 and 29),"COc1cc(C=O)c(OCc2ccc(C)nc2)cn1 [Compound 41, 2-methoxy-5-((6-methylpyridin-3-yl)methoxy)isonicotinaldehyde]"
9,+ (a delta p50% of between 0 and 29),"COc1cc(C=O)c(OCc2cccnc2)cn1 [Compound 42, 2-methoxy-5-(pyridin-3-ylmethoxy)isonicotinaldehyde]"
10,+ (a delta p50% of between 0 and 29),"COc1cc(C=O)c(OCc2ccncc2C)cn1 [Compound 47, 2-methoxy-5-((3-methylpyridin-4-yl)methoxy)isonicotinaldehyde]"
11,++ (a delta p50% of between 30 and 50),"Cc1ccc(OCc2cccn3ccnc23)c(C=O)n1 [Compound 49, 3-(imidazo[1,2-a]pyridin-8-ylmethoxy)-6-methylpicolinaldehyde]"
12,+ (a delta p50% of between 0 and 29),"COc1cc(C(O)OC)c(OCc2cccc3nccn23)cn1 (stereo not drawn) [Compound 50, (5-(imidazo[1,2-a]pyridin-5-ylmethoxy)-2-methoxypyridin-4-yl)(methoxy)methanol]"
13,+ (a delta p50% of between 0 and 29),"O=Cc1ccncc1NC(=O)c1cccn2ccnc12 [Compound 51, N-(4-formylpyridin-3-yl)imidazo[1,2-a]pyridine-8-carboxamide]"
14,+ (a delta p50% of between 0 and 29),"COc1cc(C=O)c(OCc2nc3ccccn3c2-c2ccn[nH]2)cn1 [Compound 59, 5-((3-(1H-pyrazol-5-yl)imidazo[1,2-a]pyridin-2-yl)methoxy)-2-methoxyisonicotinaldehyde]"
15,+ (a delta p50% of between 0 and 29),"COc1cc(C=O)c(OCc2cn3cccc(-c4ccnn4C)c3n2)cn1 [Compound 61, 2-methoxy-5-((8-(1-methyl-1H-pyrazol-5-yl)imidazo[1,2-a]pyridin-2-yl)methoxy)isonicotinaldehyde]"
16,+ (a delta p50% of between 0 and 29),"COc1cc(C=O)c(OCc2ccc(C#N)nc2)cn1 [Compound 62, 5-((4-formyl-6-methoxypyridin-3-yloxy)methyl)picolinonitrile]"
17,+ (a delta p50% of between 0 and 29),"COc1cc(C=O)c(OCc2cccnc2C#N)cn1 [Compound 64, 3-((4-formyl-6-methoxypyridin-3-yloxy)methyl)picolinonitrile]"
18,+ (a delta p50% of between 0 and 29),"COc1cc(C2OCCO2)c(OCc2cn3cccc(C(N)=O)c3n2)cn1 [Compound 68, 2-((4-(1,3-dioxolan-2-yl)-6-methoxypyridin-3-yloxy)methyl)imidazo[1,2-a]pyridine-8-carboxamide]"
19,+ (a delta p50% of between 0 and 29),"CNC(=O)c1cccn2cc(COc3cnc(OC)cc3C3OCCO3)nc12 [Compound 69, 2-((4-(1,3-dioxolan-2-yl)-6-methoxypyridin-3-yloxy)methyl)-N-methylimidazo[1,2-a]pyridine-8-carboxamide]"
20,+ (a delta p50% of between 0 and 29),"COc1cc(C=O)c(OCc2cncc(-c3ccn[nH]3)c2)cn1 [Compound 70, 5-((5-(1H-pyrazol-5-yl)pyridin-3-yl)methoxy)-2-methoxyisonicotinaldehyde]"
21,+ (a delta p50% of between 0 and 29),"COc1cc(C=O)c(OCc2cnccc2-c2ccn[nH]2)cn1 [Compound 71, 5-((4-(1H-pyrazol-5-yl)pyridin-3-yl)methoxy)-2-methoxyisonicotinaldehyde]"
22,+ (a delta p50% of between 0 and 29),"CNC(=O)c1cccn2cc(COc3cnc(OC)cc3C(O)O)nc12 [Compound 72, 2-((4-(dihydroxymethyl)-6-methoxypyridin-3-yloxy)methyl)-N-methylimidazo[1,2-a]pyridine-8-carboxamide]"
23,+ (a delta p50% of between 0 and 29),"COc1cc(C(O)O)c(OCc2cn3cccc(C(N)=O)c3n2)cn1 [Compound 73, 2-((4-(dihydroxymethyl)-6-methoxypyridin-3-yloxy)methyl)imidazo[1,2-a]pyridine-8-carboxamide]"
24,+ (a delta p50% of between 0 and 29),"COc1cc(C=O)c(OCc2cncc(-c3ccn(C)n3)c2)cn1 [Compound 75, 2-methoxy-5-((5-(1-methyl-1H-pyrazol-3-yl)pyridin-3-yl)methoxy)isonicotinaldehyde]"
25,+ (a delta p50% of between 0 and 29),"COc1cc(C=O)c(OCc2cncc(-c3cn[nH]c3)c2)cn1 [Compound 76, 5-((5-(1H-pyrazol-4-yl)pyridin-3-yl)methoxy)-2-methoxyisonicotinaldehyde]"
26,+ (a delta p50% of between 0 and 29),"COc1cc(C=O)c(OCc2cncc(-c3cnn(C)c3)c2)cn1 [Compound 77, 2-methoxy-5-((5-(1-methyl-1H-pyrazol-4-yl)pyridin-3-yl)methoxy)isonicotinaldehyde]"
27,+ (a delta p50% of between 0 and 29),"COC(=O)c1cncc(COc2cnc(OC)cc2C=O)c1 [Compound 78, methyl 5-((4-formyl-6-methoxypyridin-3-yloxy)methyl)nicotinate]"
28,+ (a delta p50% of between 0 and 29),"Cc1ccc(OCc2cnc3ccccc3c2)c(C=O)n1 [Compound 81, 6-methyl-3-(quinolin-3-ylmethoxy)picolinaldehyde]"

# Same assay, conditions: compound at 100 μM; 25 μM purified HbS, 45 min at 37° C.
row,delta p50%,Compound
1,+ (a delta p50% of between 0 and 29),"O=Cc1cccnc1CCc1cccn2ccnc12 [Compound 12, 2-(2-(imidazo[1,2-a]pyridin-8-yl)ethyl)nicotinaldehyde]"
2,+ (a delta p50% of between 0 and 29),"COc1cc(C=O)c(OCc2ccc(C(F)(F)F)nc2)cn1 [Compound 40, 2-methoxy-5-((6-(trifluoromethyl)pyridin-3-yl)methoxy)isonicotinaldehyde]"
3,++ (a delta p50% of between 30 and 50),"COc1cc(C=O)c(OCc2ccncc2Br)cn1 [Compound 48, 5-((3-bromopyridin-4-yl)methoxy)-2-methoxyisonicotinaldehyde]"
4,+ (a delta p50% of between 0 and 29),"COc1cc(C=O)c(OCc2cn3cc(C(F)(F)F)ccc3n2)cn1 [Compound 52, 2-methoxy-5-((6-(trifluoromethyl)imidazo[1,2-a]pyridin-2-yl)methoxy)isonicotinaldehyde]"
5,++ (a delta p50% of between 30 and 50),"COc1cc(C=O)c(OCc2ccn(C)c(=O)c2)cn1 [Compound 54, 2-methoxy-5-((1-methyl-2-oxo-1,2-dihydropyridin-4-yl)methoxy)isonicotinaldehyde]"
6,+ (a delta p50% of between 0 and 29),"COc1cc(C=O)c(OCc2nc3ccccn3c2Br)cn1 [Compound 55, 5-((3-bromoimidazo[1,2-a]pyridin-2-yl)methoxy)-2-methoxyisonicotinaldehyde]"
7,+ (a delta p50% of between 0 and 29),"COc1cc(C=O)c(OCc2cn3cc(Br)ccc3n2)cn1 [Compound 56, 5-((6-bromoimidazo[1,2-a]pyridin-2-yl)methoxy)-2-methoxyisonicotinaldehyde]"
8,++ (a delta p50% of between 30 and 50),"COc1cc(C=O)c(OCc2cn3cccc(Br)c3n2)cn1 [Compound 57, 5-((8-bromoimidazo[1,2-a]pyridin-2-yl)methoxy)-2-methoxyisonicotinaldehyde]"
